Patent US20230132535A1, “PROLIFERATION SUPPRESSING AGENT FOR CANINE CANCER CELLS” (Japan Animal Referral Medical Center, priority 2020, published 2023)
Each block holds one compound with its values, some of them ahead of it.

Key:
TCCV-Ni strain = experiment: Cell proliferation suppressing test (WST 1), TCCV-Ni strain; format: cell-based, canine; settings: Canis lupus familiaris
TCCV-Ec strain = experiment: Cell proliferation suppressing test (WST 1), TCCV-Ec strain; format: cell-based, canine; settings: Canis lupus familiaris; TCCV-Ec strain only
Description: (§1) 1,000 to 3,000 established cell lines (TCCV-Ka, TCCV-So, TCCV-Ec, TCCV-Ni, and TCCV-Ic) per well were spread on 96 well culture plates and cultured for 24 hours, then 8 BRAF inhibiting agents (GDC0879, AZ628, PLX4720, Encorafenib, Vemurafenib, Dabrafenib, RAF265, and CEP32496) dissolved in 0.1% DMSO were added with GDC0879, AZ628, Vemurafenib, Dabrafenib, and RAF265 at 0, 50, 100, 500, 1000, 5000, and 10000 nM, PLX4720 at 0, 1, 10, 100, 1000, 5000, and 10000 nM, Encorafenib at 0, 32, 63, 125, 250, 500, and 1000 nM, CEP32496 at 0, 3, 10, 30, 100, 300, and 1000 nM, the number of surviving cells after 24, 48, and 72 hours was measured using WST 1, and the cell proliferation suppressing activity was calculated.
(§2) One example of the reaction curve of the BRAF inhibiting agent against canine V595E transitional epithelial cancer cells (TCC V-So strain) was shown in FIG. 1.

[1] = test system: canine V595E transitional epithelial cancer cells (TCCV-Ka, TCCV-So, TCCV-Ec, TCCV-Ni, TCCV-Ic); experiment: Cell proliferation suppressing test (WST 1), five V595E transitional epithelial cancer established cell lines; format: cell-based
Source text: Using five canine V595E transitional epithelial cancer established cell lines, taken from clinical cases by the inventors so far and cloned in approximately 80 passages, the cell proliferation suppressing activity of eight human BRAF inhibiting agents (GDC0879, AZ628, PLX4720, Encorafenib, Vemurafenib, Dabrafenib, RAF265, and CEP32496), which are available and have high cell proliferation suppressing activity, was investigated. In addition, in the xenograft test system, suppression of tumor growth (anti-tumor activity) was measured and the anti-tumor activity was investigated.
as §1, with “calculated. […]” for “calculated.”

[2] = test system: V595E transitional epithelial cancer cells (TCCV-So strain); experiment: Cell proliferation suppressing test (WST 1), TCCV-So strain; format: cell-based, canine; settings: Canis lupus familiaris
Description: as §1, §2

[3] = test system: BRAFV595E transitional epithelial cancer cells (TCCV-Ka strain); experiment: Anti-tumor activity by a xenograft test system (TCCV-Ka strain in SCID mice); format: in vivo, SCID mouse; settings: 10 mg/kg intraperitoneally, 5 times/week, compared to control group, from day 5 of administration
Description: In order to observe the anti-tumor activity in the xenograft test system, it has been reported that the tumor growth depends on the number of cells inoculated, cell strains, and animal species. Then, five strains of V595E transitional epithelial cancer established cell lines, 1×10^6 and 1×10^7 cells/200 μl, were inoculated subcutaneously on the ventral side of SCID mouse (CB17/Icr-scid/scid. Jcl, CLEA Japan), and the formation of tumors was observed.
Using the TCCV-Ka strain as a graft cell, 1×10^7 cells were inoculated on the right ventral side of 5 SCID mice in each of the administration group and the control group. Two weeks later, a tumor of approximately 5×5 mm was formed. In the control group, 10% DMSO was administered intraperitoneally, and in the administration group, 200 μl of CEP32496 suspension solution (10 mg/kg) in 10% DMSO was administered intraperitoneally. The administration was 5 times/week.

IC50 (TCCV-Ni strain): 1500 nM
SMILES: CCCS(=O)(=O)Nc1ccc(F)c(C(=O)c2c[nH]c3ncc(-c4ccc(Cl)cc4)cc23)c1F [Vemurafenib]

SMILES: CCCS(=O)(=O)Nc1ccc(F)c(C(=O)c2c[nH]c3ncc(Cl)cc23)c1F [PLX4720]
IC50 (TCCV-Ec strain): 200 nM

SMILES: COC(=O)N[C@@H](C)CNc1nccc(-c2cn(C(C)C)nc2-c2cc(Cl)cc(NS(C)(=O)=O)c2F)n1 [Encorafenib]
IC50 (TCCV-Ec strain): 180 nM

SMILES: Cn1c(Nc2ccc(C(F)(F)F)cc2)nc2cc(Oc3ccnc(-c4ncc(C(F)(F)F)[nH]4)c3)ccc21 [RAF265]
IC50 (TCCV-Ec strain): 150 nM

IC50 ([1]; Canis lupus familiaris, all the cell strains used (5 strains)): 9 to 200 nM
IC50 [2]: 15 nM
SMILES: COc1cc2ncnc(Oc3cccc(NC(=O)Nc4cc(C(C)(C)C(F)(F)F)on4)c3)c2cc1OC [CEP32496, 1-(3-((6,7-dimethoxyquinazolin-4-yl)oxy)phenyl)-3-(5-(1,1,1-trifluoro-2-methylpropan-2-yl)isoxazol-3-yl)urea]
proliferation suppressing activity compared to the other 7 BRAF inhibiting agents ([1]; 5 strains, FIG. 2): significantly higher activity
suppression of tumor formation (anti-tumor activity) [3]: significant suppression of tumor formation
